# Like-named read-outs stand apart in the source and are kept apart here. Where a SMILES comes first, the peptide text is derived from it.
# How the values were obtained:
# H2O2-damaged HepG2 cells = assay: Cytoprotection on H2O2-damaged HepG2 cells (MTT); assay type: cell-based, Human
# Procedure: […] Briefly, the HepG2 cells were incubated in a 96-well plate for 24 h. […] After removing peptides, H2O2 was added to the sample, GSH and model groups. After 24 h, the 96-wells were rinsed twice with PBS and used MTT method to determine the cell viability:Cell viability = (ODsample/ODcontrol) × 100%.
# pepsin and trypsin = assay: Stability in simulated gastrointestinal (GI) digestion, read out as O2−· scavenging activity; conditions: 2 h of pepsin digestion, peptide 5.0 mg/mL
# Procedure: The reaction was initiated by adding 1 mL of phenazine methosulphate (PMS) solution (120 μM) to the reaction mixture. The absorbance was measured at 560 nm against the corresponding blank after incubation for 5 min at 25 °C. The scavenging capacity of the O2−· was calculated using the following equation: O2−·scavengingactivity(%)=[(Ac−As)/Ac]×100%, where Ac is the absorbance without the sample and As is the absorbance with the sample.
# [1] = cited from earlier work
# Source text: DPPH· is a very stable radical and is commonly used as a substrate to assess antioxidant activity. MSP7 and MSP8 have a strong hydrogen donating capacity and can reduce stable DPPH·.
# [2] = cited from earlier work; remark: listed apart in the source
# Source text: HO· is a kind of strong free radical, which can not only cause lipid peroxidation in vivo but also attack polysaccharides, nucleic acids and other macromolecules, causing serious damage to cells.
# [3] = cited from earlier work; remark: listed apart in the source
# Source text: O2−· reacts with metal ions in the Fenton reaction to form HO· that triggers lipid peroxidation and causes oxidative damage to cells. MSP1, MSP2, MSP8, MSP10 and MSP13 have a strong ability to scavenge O2−· .
# [4] = cited from earlier work; remark: listed apart in the source
# Source text: ABTS^+· is a single oxygen ion radical with an absorption peak at 734 nm, which can be reduced by antioxidants leading to a decrease in absorbance.
# [5] = APs from seaweed (Eucheuma cottonii)
# [6] = APs from tuna cardiac arterial bulbs
# [7] = APs from tuna (Katsuwonus pelamis) cardiac arterial bulbs
# [8] = APs from Spanish mackerel (Scomberomorous niphonius) skin
# [9] = APs from Antarctic krill (Euphausia superba)
# [10] = APs from skin (printed after monkfish muscle)
molecule,measurement,setting,value
"N[C@@H](Cc1ccc(O)cc1)C(=O)N[C@@H](CC(=O)O)C(=O)N[C@@H](Cc1ccc(O)cc1)C(=O)N[C@@H](CC(=O)O)C(=O)O [MSP1, Tyr-Asp-Tyr-Asp] (H-YDYD-OH)",viability of H2O2-injured HepG2 cells,"H2O2-damaged HepG2 cells; peptide at 200 μmol/L, 8 h pre-incubation, then H2O2 (300 µM) 24 h, MTT, mean ± SD of triplicate, model group 51.08 ± 1.97%",82.14 ± 3.28%
"NC(=O)CC[C@H](N)C(=O)N[C@@H](CC(=O)O)C(=O)N[C@@H](Cc1ccc(O)cc1)C(=O)N[C@@H](CC(=O)O)C(=O)O [MSP2, Gln-Asp-Tyr-Asp] (H-QDYD-OH)","Declined percentage of O2−· scavenging activity, Treated with Pepsin",pepsin and trypsin,−15.13%
"N=C(N)NCCC[C@H](NC(=O)CN)C(=O)N[C@@H](Cc1c[nH]c2ccccc12)C(=O)O [MSP7, Gly-Arg-Trp] (H-Gly-Arg-Trp-OH)","Declined percentage of O2−· scavenging activity, Treated with Pepsin",pepsin and trypsin,−24.34%
"C[C@H](N)C(=O)N[C@@H](CCCNC(=N)N)C(=O)N[C@@H](Cc1c[nH]c2ccccc12)C(=O)O [MSP8, Ala-Arg-Trp] (H-Ala-Arg-Trp-OH)","Declined percentage of O2−· scavenging activity, Treated with Pepsin",pepsin and trypsin,−24.93%
same,viability of H2O2-injured HepG2 cells,"H2O2-damaged HepG2 cells; 8 h, 200 μmol/L",81.32 ± 2.45%
"NCCCC[C@H](NC(=O)CNC(=O)CNC(=O)[C@H](CC(=O)O)NC(=O)[C@@H](N)CC(=O)O)C(=O)O [MSP10, Asp-Asp-Gly-Gly-Lys] (H-DDGGK-OH)","Declined percentage of O2−· scavenging activity, Treated with Pepsin",pepsin and trypsin,−21.98%
EDIVCW [literature AP from monkfish muscle],EC50 on DPPH·,[1]; APs from monkfish muscle,390 µg/mL
same,EC50 on HO·,[2]; APs from monkfish muscle,610 µg/mL
same,EC50 on O2−·,[3]; APs from monkfish muscle,760 µg/mL
FYKA [literature AP from seaweed (Eucheuma cottonii)],EC50 on DPPH·,[1]; [5],2560 µg/mL
same,EC50 on O2−·,[3]; APs from seaweed,1910 µg/mL
GEGQR [literature AP from tuna (Katsuwonus pelamis) cardiac arterial bulbs],EC50 on ABTS^+·,[4]; [6],1218 µg/mL
same,EC50 on DPPH·,[1]; [7],2257 µg/mL
same,EC50 on O2−·,[3]; [6],2143 µg/mL
GEQSN [literature AP from tuna (Katsuwonus pelamis) cardiac arterial bulbs],EC50 on DPPH·,[1]; [7],2054 µg/mL
same,EC50 on O2−·,[3]; [6],1857 µg/mL
GHHAAA [literature AP from tuna milt (also printed under tuna roes)],EC50 on ABTS^+·,[4]; APs from tuna milt,1120 µg/mL
GPTGE [literature AP from Spanish mackerel (Scomberomorous niphonius) skin],EC50 on DPPH·,[1]; [8],1420 µg/mL
IDSQ [literature AP from Antarctic krill (Euphausia superba)],EC50 on HO·,[2]; [9],2570 µg/mL
same,EC50 on O2−·,[3]; APs from Antarctic krill,1450 µg/mL
IEEEQ [literature AP from red stingray (Dasyatis akajei) cartilages],EC50 on ABTS^+·,[4]; APs from red stingray (Dasyatis akajei) cartilages,180 µg/mL
PSYV [literature AP from loach (Misgurnus anguillicaudatus) meat],EC50 on HO·,[2]; AP from loach (Misgurnus anguillicaudatus) meat,2640 µg/mL
PYFK [literature AP from scalloped hammerhead sharks (Sphyrna lewini) muscle],EC50 on ABTS^+·,[4]; APs from scalloped hammerhead sharks muscle,120 µg/mL
same,EC50 on DPPH·,[1]; APs from scalloped hammerhead sharks (Sphyrna lewini) muscle,4110 µg/mL
PYGAKG [literature AP from Spanish mackerel (Scomberomorous niphonius) skin],EC50 on DPPH·,[1]; [8],3020 µg/mL
SMDV [literature AP from tuna milt (also printed under tuna roes)],EC50 on ABTS^+·,[4]; APs from tuna milt,1160 µg/mL
VEKT [literature AP from Antarctic krill (Euphausia superba)],EC50 on HO·,[2]; [9],1530 µg/mL
same,EC50 on O2−·,[3]; APs from Antarctic krill,860 µg/mL
VGGRP [literature AP from grass carp (Ctenopharyngodon idella) skin],EC50 on HO·,[2]; AP from grass carp (Ctenopharyngodon idella) skin,2060 µg/mL
YGPM [literature AP from Spanish mackerel skin],EC50 on ABTS^+·,[4]; APs from monkfish skin as printed,820 µg/mL
same,EC50 on DPPH·,[1]; [8],720 µg/mL
same,EC50 on HO·,[2]; [10],880 µg/mL
same,EC50 on O2−·,[3]; [10],730 µg/mL
YSKT [literature AP from seaweed (Eucheuma cottonii)],EC50 on DPPH·,[1]; [5],1710 µg/mL
YWDAW [literature AP from monkfish muscle],EC50 on DPPH·,[1]; APs from monkfish muscle,510 µg/mL
same,EC50 on HO·,[2]; APs from monkfish muscle,320 µg/mL
same,EC50 on O2−·,[3]; APs from monkfish muscle,480 µg/mL
